# Results: PubChem BioAssay AID1963978 (Molecular Pharmacology Branch, DTP, NCI, 2024)
# Test system: 616215-338-R-J1-PDC spheroids with HUVEC/MSC, viability
# Experiment: Anticancer human tumor 616215-338-R-J1-PDC patient-derived colon adenocarcinoma cell line growth inhibition [PI3K]
# Details: for viability, T/C: stronger effect = lower value
# Text: Combinatorial screen of targeted agents with the PI3K inhibitors inavolisib, alpelisib, duvelisib, and copanlisib in multi-cell type tumor spheroids
# A high-throughput screen of multi-cell type tumor spheroids was designed to identify active combinations of targeted small molecules and PI3K pathway inhibitors. Complex spheroids include a stromal component modeled by human endothelial cells (HUVEC) and fibroblasts modeled by human mesenchymal stem cells (MSCs). The concentration ranges selected for each drug and investigational agent were based upon clinically achievable concentrations if the clinical Cmax of the agent was known.
# Compounds. The drugs and investigational agents: inavolisib (NSC800729), alpelisib (NSC765974), duvelisib (NSC772469), copanlisib (NSC816437), ipatasertib (NSC767898), afuresertib (NSC778305), talazoparib (NSC767125), sapanisertib (NSC764658), selumetinib (NSC741078), tovorafenib (DAY101, NSC766906), vemurafenib (NSC761431), ravoxertinib (NSC781343), sotorasib (NSC818433), MRTX1133 (NSC 836407), abemaciclib (NSC 768073), palbociclib (NSC758247), venetoclax (NSC 766270), SY5609 (NSC837396), enzalutamide (NSC755605), and darolutamide (NSC825331), were obtained from the National Cancer Institute (NCI) Developmental Therapeutics Program Chemical Repository. The FDA-approved anticancer drug set is available from the NCI Developmental Therapeutics Program. […] The stock solutions were prepared in dimethyl sulfoxide (DMSO, Sigma-Aldrich, St. Louis, MO, cat. D2650) at 800-fold the tested concentration and stored at -70 degrees C prior to their use. All drugs and investigational agents were tested over a range starting from a high concentration at or near the clinical Cmax and decreasing in half-log increments. If the clinical Cmax for an agent had not been determined, the highest concentration tested was 10 microM.
# Cell Culture. All cells were maintained in an incubator at 37 degrees C and 5% CO2 with 95% humidity. The PDC lines were cultured according to standard operating procedures established by the NCI PDMR (https://pdmr.cancer.gov/sops/default.htm). All PDCs were thawed and cultured in Matrigel-coated flasks prepared with a working solution of 1X Ham's F-12 nutrient mix, without supplementation (Invitrogen, Waltham, MA, cat. 11765054), 100 U/mL penicillin-streptomycin (Invitrogen, cat. 15140122), and 2.5% Matrigel (Corning Inc., Corning, NY, cat. 354248) for the first three passages. The 354836-022-R-J1-PDC, 475296-252-R-J1-PDC, and 997726-040-R-J2-PDC lines were cultured in 6A media, which includes advanced DMEM/F-12 (Thermo Fisher Scientific, cat. 12634028), 10 mM HEPES (Thermo Fisher Scientific, cat. 15630080), 1X GlutaMAX supplement (Thermo Fisher Scientific, cat. 35050061), 0.1 mg/mL primocin (InvivoGen, San Diego, CA, cat. ant-pm-2), 10% defined fetal bovine serum, heat inactivated (HyClone Laboratories Inc., Logan, UT, cat. SH30070.03HI), 50% L-WRN conditioned media (ATCC, cat. CRL-3276), 1.25 mM N-Acetyl-L-cysteine (Sigma-Aldrich, cat. A9165), 10 mM nicotinamide (Sigma-Aldrich, cat. N0636), 1X B-27 supplement (Thermo Fisher Scientific, cat. 17504044), 1X N-2 supplement (Thermo Fisher Scientific, cat. 17502048), and 10 microM Y-27632 dihydrochloride (Tocris Bioscience, Bristol, United Kingdom, cat. 1254). The 624824-186-R-J2-PDC line was cultured in 6C/Colon 1B media, which includes all 6A media components plus 50 ng/mL human EGF recombinant protein (Thermo Fisher Scientific, cat. PHG0311). […]
# [1] = curve of first compound, second compound 0.0316 µM
# [2] = curve of first compound, second compound 0.1 µM
# [3] = curve of first compound, second compound 0.316 µM
# [4] = curve of first compound, second compound 1 µM
# [5] = second compound 0.0316 µM, first compound 0.0316 µM
# [6] = second compound 0.0316 µM, first compound 0.1 µM
# [7] = second compound 0.0316 µM, first compound 0.316 µM
# [8] = second compound 0.0316 µM, first compound 1 µM
# [9] = second compound 0.0316 µM, first compound 3.16 µM
# [10] = second compound 0.0316 µM, first compound 10 µM
# [11] = second compound 0.1 µM, first compound 0.0316 µM
# [12] = second compound 0.1 µM, first compound 0.1 µM
# [13] = second compound 0.1 µM, first compound 0.316 µM
# [14] = second compound 0.1 µM, first compound 1 µM
# [15] = second compound 0.1 µM, first compound 3.16 µM
# [16] = second compound 0.1 µM, first compound 10 µM
# [17] = second compound 0.316 µM, first compound 0.0316 µM
# [18] = second compound 0.316 µM, first compound 0.1 µM
# [19] = second compound 0.316 µM, first compound 0.316 µM
# [20] = second compound 0.316 µM, first compound 1 µM
# [21] = second compound 0.316 µM, first compound 3.16 µM
# [22] = second compound 0.316 µM, first compound 10 µM
# [23] = second compound 1 µM, first compound 0.0316 µM
# [24] = second compound 1 µM, first compound 0.1 µM
# [25] = second compound 1 µM, first compound 0.316 µM
# [26] = second compound 1 µM, first compound 1 µM
# [27] = second compound 1 µM, first compound 3.16 µM
# [28] = second compound 1 µM, first compound 10 µM
# [29] = curve of first compound, second compound 0.00316 µM
# [30] = curve of first compound, second compound 0.01 µM
# [31] = second compound 0.00316 µM, first compound 0.0316 µM
# [32] = second compound 0.00316 µM, first compound 0.1 µM
# [33] = second compound 0.00316 µM, first compound 0.316 µM
# [34] = second compound 0.00316 µM, first compound 1 µM
# [35] = second compound 0.00316 µM, first compound 3.16 µM
# [36] = second compound 0.00316 µM, first compound 10 µM
# [37] = second compound 0.01 µM, first compound 0.0316 µM
# [38] = second compound 0.01 µM, first compound 0.1 µM
# [39] = second compound 0.01 µM, first compound 0.316 µM
# [40] = second compound 0.01 µM, first compound 1 µM
# [41] = second compound 0.01 µM, first compound 3.16 µM
# [42] = second compound 0.01 µM, first compound 10 µM
# 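Also: spheroids exposed to agents for seven days before the viability read.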
smiles,measurement,setting,value
C[C@@H](NC(=O)c1ncnc(N)c1Cl)c1ncc(C(=O)Nc2cc(C(F)(F)F)c(Cl)cn2)s1 + CC(Nc1ncnc2nc[nH]c12)c1cc2cccc(Cl)c2c(=O)n1-c1ccccc1,IC50,[1],> 10000 nM
same,IC50,[2],> 10000 nM
same,IC50,[3],> 10000 nM
same,IC50,[4],> 10000 nM
same,IC50,"curve of first compound, second compound 3.16 µM",> 10000 nM
same,IC50,"curve of first compound, second compound 10 µM",9700 nM
same,"viability, T/C",[5],100%
same,"viability, T/C",[6],115%
same,"viability, T/C",[7],105%
same,"viability, T/C",[8],105%
same,"viability, T/C",[9],114%
same,"viability, T/C",[10],88.5%
same,"viability, T/C",[11],99.7%
same,"viability, T/C",[12],101%
same,"viability, T/C",[13],97%
same,"viability, T/C",[14],118%
same,"viability, T/C",[15],105%
same,"viability, T/C",[16],90.5%
same,"viability, T/C",[17],112%
same,"viability, T/C",[18],105%
same,"viability, T/C",[19],101%
same,"viability, T/C",[20],110%
same,"viability, T/C",[21],99%
same,"viability, T/C",[22],74.6%
same,"viability, T/C",[23],104%
same,"viability, T/C",[24],106%
same,"viability, T/C",[25],104%
same,"viability, T/C",[26],96.6%
same,"viability, T/C",[27],113%
same,"viability, T/C",[28],64.8%
same,"viability, T/C","second compound 3.16 µM, first compound 0.0316 µM",95.9%
same,"viability, T/C","second compound 3.16 µM, first compound 0.1 µM",103%
same,"viability, T/C","second compound 3.16 µM, first compound 0.316 µM",104%
same,"viability, T/C","second compound 3.16 µM, first compound 1 µM",98.4%
same,"viability, T/C","second compound 3.16 µM, first compound 3.16 µM",99.4%
same,"viability, T/C","second compound 3.16 µM, first compound 10 µM",67.2%
same,"viability, T/C","second compound 10 µM, first compound 0.0316 µM",95.4%
same,"viability, T/C","second compound 10 µM, first compound 0.1 µM",113%
same,"viability, T/C","second compound 10 µM, first compound 0.316 µM",98.8%
same,"viability, T/C","second compound 10 µM, first compound 1 µM",98.5%
same,"viability, T/C","second compound 10 µM, first compound 3.16 µM",88.5%
same,"viability, T/C","second compound 10 µM, first compound 10 µM",48.4%
CC1(C)CCC(Nc2ncc(C(F)(F)F)c(-c3c[nH]c4c(P(C)(C)=O)c(C#N)ccc34)n2)CN1 (stereo not drawn) + COc1c(OCCCN2CCOCC2)ccc2c3n(c(=NC(=O)c4cnc(N)nc4)nc12)CCN3,IC50,[29],< 31.6 nM
same,IC50,[30],< 31.6 nM
same,IC50,[1],< 31.6 nM
same,IC50,[2],188 nM
same,IC50,[3],< 31.6 nM
same,IC50,[4],< 31.6 nM
same,"viability, T/C",[31],47.5%
same,"viability, T/C",[32],43.1%
same,"viability, T/C",[33],31.6%
same,"viability, T/C",[34],56.8%
same,"viability, T/C",[35],48.9%
same,"viability, T/C",[36],0.29%
same,"viability, T/C",[37],40.2%
same,"viability, T/C",[38],29%
same,"viability, T/C",[39],38.7%
same,"viability, T/C",[40],72.4%
same,"viability, T/C",[41],44.5%
same,"viability, T/C",[42],0.67%
same,"viability, T/C",[5],34.5%
same,"viability, T/C",[6],33.7%
same,"viability, T/C",[7],41.5%
same,"viability, T/C",[8],44.8%
same,"viability, T/C",[9],37.4%
same,"viability, T/C",[10],0.14%
same,"viability, T/C",[11],63.7%
same,"viability, T/C",[12],43.8%
same,"viability, T/C",[13],47.6%
same,"viability, T/C",[14],41.6%
same,"viability, T/C",[15],21.4%
same,"viability, T/C",[16],0.09%
same,"viability, T/C",[17],29.9%
same,"viability, T/C",[18],23.8%
same,"viability, T/C",[19],20.1%
same,"viability, T/C",[20],18.9%
same,"viability, T/C",[21],8.61%
same,"viability, T/C",[22],0.69%
same,"viability, T/C",[23],20%
same,"viability, T/C",[24],19.6%
same,"viability, T/C",[25],14.9%
same,"viability, T/C",[26],16.1%
same,"viability, T/C",[27],8.67%
same,"viability, T/C",[28],0.24%
CC(Nc1ccc2c(c1)OCCn1cc(N3C(=O)OCC3C(F)F)nc1-2)C(N)=O (stereo not drawn),"viability, T/C",compound 0.00316 µM,94.5% [middle of 8 runs]
same,"viability, T/C",compound 0.01 µM,96.4% [middle of 8 runs]
same,"viability, T/C",compound 0.0316 µM,100% [middle of 8 runs]
same,"viability, T/C",compound 0.1 µM,97.1% [middle of 8 runs]
same,"viability, T/C",compound 0.316 µM,98.8% [middle of 8 runs]
same,"viability, T/C",compound 1 µM,105% [middle of 8 runs]
same,IC50,"compound alone, run of 05/08/2023",> 1000 nM
Cn1ncc(Cl)c1-c1cc(C(=O)NC(CN)Cc2cccc(F)c2)sc1Cl (stereo not drawn) + COc1c(OCCCN2CCOCC2)ccc2c3n(c(=NC(=O)c4cnc(N)nc4)nc12)CCN3,IC50,[29],2980 nM
same,IC50,[30],2960 nM
same,IC50,[1],2490 nM
same,IC50,[2],1890 nM
same,IC50,[3],< 31.6 nM
same,IC50,[4],< 31.6 nM
same,"viability, T/C",[31],95.1%
same,"viability, T/C",[32],90.2%
same,"viability, T/C",[33],91.7%
same,"viability, T/C",[34],99.6%
same,"viability, T/C",[35],47.6%
same,"viability, T/C",[36],16.6%
same,"viability, T/C",[37],108%
same,"viability, T/C",[38],96.3%
same,"viability, T/C",[39],94.6%
same,"viability, T/C",[40],92.9%
same,"viability, T/C",[41],47.3%
same,"viability, T/C",[42],17.6%
same,"viability, T/C",[5],102%
same,"viability, T/C",[6],104%
same,"viability, T/C",[7],96.7%
same,"viability, T/C",[8],75.2%
same,"viability, T/C",[9],43.9%
same,"viability, T/C",[10],15.1%
same,"viability, T/C",[11],90.8%
same,"viability, T/C",[12],86.8%
same,"viability, T/C",[13],79.7%
same,"viability, T/C",[14],72.8%
same,"viability, T/C",[15],32.2%
same,"viability, T/C",[16],12.9%
same,"viability, T/C",[17],45%
same,"viability, T/C",[18],35%
same,"viability, T/C",[19],35.5%
same,"viability, T/C",[20],32%
same,"viability, T/C",[21],27.2%
same,"viability, T/C",[22],15.3%
same,"viability, T/C",[23],21.4%
same,"viability, T/C",[24],28.2%
same,"viability, T/C",[25],16.9%
same,"viability, T/C",[26],20.9%
same,"viability, T/C",[27],16.6%
same,"viability, T/C",[28],7.24%
